Reference: the NIST ThermoML archive (doi:10.1021/je049894j)
± gives the expanded uncertainty stated by the source.

Conditions: Liquid

SMILES	vapor or sublimation pressure (468.15 K)	vapor or sublimation pressure (483.15 K)	vapor or sublimation pressure (498.15 K)	vapor or sublimation pressure (513.15 K)
CCCCC [pentane]	3286 ± 100 kPa	–	–	–
CCC(C)O (centres undefined) [butan-2-ol]	1351 ± 31 kPa	1791 ± 39 kPa	2329 ± 49 kPa	2946 ± 60 kPa
CCCCO [butan-1-ol]	833 ± 26 kPa	1182 ± 37 kPa	1558 ± 48 kPa	2027 ± 63 kPa
